In patent publication EP0186452A2, “Organosilicon compounds process for their production and pharmaceutical compositions thereof” (SANWA KAGAKU KENKYUSHO CO., LTD., priority 1984, dated 1986):

What was measured:
[1] = Acute toxicity, oral dosage to mice, LD50; conditions: mouse, in vivo, single dose suspended in 0.1% P-1570, ICR female mice, observed 21 days
Description: Each test compound suspended in 0.1% P-1570 was orally and forcedly dosed through a gastric probe to ICR female mice (21 - 22g, age of about 5 weeks). An identification number was given to each mouse, and weighing and observation on general behaviour were done just before the dosage and each day after the same. Each dead mouse was subjected without delay to an autopsy to check the same, more particularly in detail on enterona. All living mice were killed at the 21st day from the dosage to carry out an autopsy for checking the same, more particularly on the entrails.
An LD50 was calculated in accordance with Leed.and Munch's method.

B-16 melanoma = assay: Anti-tumor action to B-16 melanoma transplanted under skin of mice; format: in vivo, BDF1 female mice; conditions: Mus musculus, B16, 504 h, 5th and 9th day, tumor weight at 21st day, read-out: Inhibition Ratio (%); for inhibition in vivo at 250 mg/kg: 250 mg/kg/day x 3, oral at 1st; for inhibition in vivo at 500 mg/kg: 500 mg/kg/day x 3, oral at 1st; for inhibition in vivo at 125 mg/kg: 125 mg/kg/day x 3, oral at 1st
Description: A cancer cell of B-16 melanoma (1 x 10^5 cells) was transplanted under skin of BDF1 female mice (age of about 5 weeks), and each of testing compounds was orally dosed at lst, 5th and 9th day after the transplantation. At 21st day after the transplantation, the mice were killed to measure a weight of the formed cancerous tumor and to finally determine an inhibition ratio due to the dosage of the test compound.

colon-38 carcinoma = assay: Anti-tumor action to colon-38 carcinoma transplanted under skin of mice; format: in vivo, BDF1 female mice; conditions: 5th and 9th day, tumor weight at 28th day vs non-treated control; for inhibition in vivo at 338 mg/kg: 338 mg/kg/day x 3, oral at 1st; for inhibition in vivo at 323 mg/kg: 323 mg/kg/day x 3, oral at 1st
Procedure: 0.02 ml of 10(W/V) cell suspension prepared from a solid cancer cell (colon-38 carcinoma) was transplanted under skin of BDF1 female mice (20 - 21g, age of about 5 weeks), and each test compound was orally dosed at lst, 5th and 9th day after the transplantation. major and minor axes of the forming cancerous tumor were measured at llth, 14th, 18th, 21st, 25th and 28th day after the transplantation to calcuate the volume ofthe cancerous tumor in accordance with the equation: [formula] • wherein L: major axis (mm) • W: minor axis (mm)
At 28th day from the transplantation, the mice were killed and each of the cancerous tumors was enucleated to measure its weight and to determine an inhibition ratio in comparison with that in a non-treated control group.

[2] = Mus musculus, 672 h, read-out: Inhibition Ratio (%)

SMILES | LD50 at 504 h [1] [mg/kg] | inhibition in vivo at 250 mg/kg (B-16 melanoma) [%] | inhibition in vivo at 500 mg/kg (B-16 melanoma) [%] | other results
CCCCCCCC[Si](C)(C)CCSCCN [Example 1, 2-[[2-(Dimethyl-n-octylsilyl)ethyl]thio]ethylamine] | > 1500 |  |  | 
CC(C)[Si](C)(C)CCSCCN [Example 2, Z-([2-(Isopropyldimethylsilyl)ethyl]thio]ethylamine] | 1620 | 23.8 | 36.1 | 
CCCC[Si](C)(C)CCSCCN [Example 3, 2-[[2-(n-Butyldimethylsilyl)ethyl]thio]ethylamine] | > 1500 |  |  | 
C[Si](CCSCCN)(c1ccccc1)c1ccccc1 [Example 4, 2-[[2-(Methyldiphenylsilyl)ethyl]thio)ethylamine] | > 1500 |  |  | 
CC(C)[Si](C)(C)CCSCCCN [Example 5, 3-[[2-(Isopropyldimethylsilyl)ethyl]thio]propylamine] | 750 | 21.4 | 50.6 | 
CC(C)[Si](C)(C)CCCSCCN [Example 6, Z-[[3-(Isopropyldimethylsilyl)propyl]thio]ethylamine] | 1500 |  |  | 
CC(C)(C)[Si](C)(C)CCCSCCN [Example 7, 2[[3-(t-Butyldimethylsilyl)propyl]thio]ethylamine] | > 1500 | 50 | 32.7 | 
CC(C)[Si](C)(C)CCCSCCCN [Example 8, 3-[[3-(Isopropyldimethylsilyl)propyl]thio]propylamine] | > 1500 | 61.1 | 46.3 | 
CC(C)(C)[Si](C)(C)CCCSCCCN [Example 9, 3-[[3-(t-Butyldimethylsilyl)propyl]thio)propylamine] | > 1500 | 57.3 | 51.9 | 
CCCC[Si](C)(C)CCCSCCCN [Example 10, 3-[[3-(n-Butyldimethylsilyl)propyl)thio)propylamine] | > 1500 | 50.4 | 29.8 | 
C[Si](C)(CCCSCCCN)c1ccccc1 [Example 11, 3[[3-(Dimethylphenylsilyl)propyl]thio]propylamine] | > 1500 | 38.7 | 45.4 | 
CCCCCCCC[Si](C)(C)CCSCCNC(=O)n1cc(F)c(=O)[nH]c1=O [Reference Example 1, 1-[2-[[2-dimethyl-n-octylsilylethyl)thio]ethylcarbamoyl]-5-fluorouracil] | 1580 |  |  | inhibition in vivo at 345 mg/kg (colon-38 carcinoma; Mus musculus, 672 h, 345 mg/kg/day x 3, oral at 1st, read-out: Inhibition Ratio (%)): 80%
CC(C)[Si](C)(C)CCSCCNC(=O)n1cc(F)c(=O)[nH]c1=O [Reference Example 2, 1-[2-[[2-(Dimethylisopropylsilyl)ethyl]thio]-ethylcarbamoyl]-5-fluorouracil] | 1380 |  |  | inhibition in vivo at 300 mg/kg (B-16 melanoma; 300 mg/kg/day x 3, oral at 1st): 79.7%; inhibition in vivo at 289 mg/kg (colon-38 carcinoma; Mus musculus, 672 h, 289 mg/kg/day x 3, oral at 1st, read-out: Inhibition Ratio (%)): 89.8%
CCCC[Si](C)(C)CCSCCNC(=O)n1cc(F)c(=O)[nH]c1=O [compound 3, 1-[2-[[2-(Dimethyl-n-butylsilyl)ethyl]thio]-ethylcarbamoyl]-5-fluorouracil] | 1380 |  |  | inhibition in vivo at 300 mg/kg (colon-38 carcinoma; Mus musculus, 672 h, 300 mg/kg/day x 3, oral at 1st, read-out: Inhibition Ratio (%)): 81.2%
C[Si](CCSCCNC(=O)n1cc(F)c(=O)[nH]c1=O)(c1ccccc1)c1ccccc1 [compound 4, 1-[2-[[2-(Diphenylmethylsilyl)ethyl]thio]-ethylcarbamoyl]-5-fluorouracil] | 1400 |  |  | Inhibition Ratio (%) (colon-38 carcinoma; 366 mg/kg/day x 3, oral at 1st): 32.2%
CC(C)[Si](C)(C)CCSCCCNC(=O)n1cc(F)c(=O)[nH]c1=O [compound 5, 1-[3-[[2-(Dimethylisopropylsilyl)ethyl]thio]-propylcarbamoyl]-5-fluorouracil] | 2250 | 19.4 |  | inhibition in vivo at 125 mg/kg (B-16 melanoma): 17.6%; inhibition in vivo at 338 mg/kg (colon-38 carcinoma; [2]): 98.4%
CC(C)[Si](C)(C)CCCSCCNC(=O)n1cc(F)c(=O)[nH]c1=O [compound 6, 1-[2-[[3-(Dimethylisopropylsilyl)propyl]thio]-ethylcarbamoyl]-5-fluorouracil] | 1820 |  |  | inhibition in vivo at 338 mg/kg (colon-38 carcinoma; [2]): 95.9%
CC(C)(C)[Si](C)(C)CCCSCCNC(=O)n1cc(F)c(=O)[nH]c1=O [compound 7, 1-{2-{[3-(Dimethyl-t-butylsilyl]propyl)thio}-ethylcarbamoyl}-5-fluorouracil] | 1380 | 43.1 |  | inhibition in vivo at 311 mg/kg (colon-38 carcinoma; Mus musculus, 672 h, 311 mg/kg/day x 3, oral at 1st, read-out: Inhibition Ratio (%)): 81%
CC(C)[Si](C)(C)CCCSCCCNC(=O)n1cc(F)c(=O)[nH]c1=O [compound 8, 1-{3-{[3-(Dimethylisopropylsilyl)propyl]thio}-propylcarbamoyl}-5-fluorouracil] | 2120 | 45.7 |  | inhibition in vivo at 125 mg/kg (B-16 melanoma): 32.8%; inhibition in vivo at 350 mg/kg (colon-38 carcinoma; Mus musculus, 672 h, 350 mg/kg/day x 3, oral at 1st, read-out: Inhibition Ratio (%)): 90.3%
CC(C)(C)[Si](C)(C)CCCSCCCNC(=O)n1cc(F)c(=O)[nH]c1=O [compound 9, 1-{3-{[3-(t-Butyldimethylsilyl)propyl]thio}-propylcarbamoyl}-5-fluorouracil] | 1800 | 46.3 |  | inhibition in vivo at 125 mg/kg (B-16 melanoma): 55.2%; inhibition in vivo at 323 mg/kg (colon-38 carcinoma; [2]): 90.1%
CCCC[Si](C)(C)CCCSCCCNC(=O)n1cc(F)c(=O)[nH]c1=O [compound 10, 1-{3-{[3-(n-Butyldimethylsilyl)propyl]thio}-propylcarbamoyl}-5-fluorouracil] | 1850 | 88.5 |  | inhibition in vivo at 125 mg/kg (B-16 melanoma): 69.5%; inhibition in vivo at 323 mg/kg (colon-38 carcinoma; [2]): 92.3%
C[Si](C)(CCCSCCCNC(=O)n1cc(F)c(=O)[nH]c1=O)c1ccccc1 [compound 11, 1-{3-{[3-(Dimethylphenylsilyl)propyl]thio}-propylcarbamoyl}-5-fluorouracil] | 1800 | 70.5 |  | inhibition in vivo at 125 mg/kg (B-16 melanoma): 82.2%; inhibition in vivo at 339 mg/kg (colon-38 carcinoma; Mus musculus, 672 h, 339 mg/kg/day x 3, oral at 1st, read-out: Inhibition Ratio (%)): 97.9%
